Experimental data reported in article PMC11954145, “Antimicrobial and ADME properties of methoxylated, methylated and nitrated 2-hydroxynaphthalene-1 carboxanilides” (ADMET & DMPK, 2025).
In brackets after ≈: the same amount, converted by molar mass. Where two headings read alike, the source gives them in different places.

Key:
[1] = test system: Mycobacterium kansasii DSM 44162; parameters: method as in PMID 23924993; conditions: previously published monosubstituted derivatives; cited from earlier work
MRSA SA 630 = experiment: Antibacterial screening, broth microdilution MIC; assay type: cell-based, methicillin-resistant S. aureus; conditions: Staphylococcus aureus, read-out: MIC MRSA SA 630
in vitro = conditions: human
Procedure: Cytotoxicity of the compounds was determined using an LDH assay kit (Roche Diagnostics, Mannheim, Germany) as described previously. Human monocytic leukemia THP-1 cells (European Collection of Cell Cultures, Salisbury, UK) were exposed for 24 h at 37 °C to various compound concentrations ranging from 0.37 to 30 μM in RPMI 1640 medium. For LDH assays, cells were seeded into 96-well plates (5×10^4 cells/well in 100 μL culture medium) in triplicate in serum-free RPMI 1640 medium and measurements were taken 24 h after the treatment with the compounds. The maximum concentration of DMSO (Sigma) in the assays never exceeded 0.1 %. […] The median lethal dose values, LC50, were deduced through the production of a dose-response curve. All data from three independent experiments were evaluated using GraphPad Prism 5.00 software (GraphPadSoftware, San Diego, CA, USA).

[2] = Lipophilicity determination by RP-HPLC (log k, log D); assay type: physicochemical; conditions: for log D6.5: RP-HPLC C18, MeOH 72 % / acetate-buffered saline pH 6.5; for log D7.4: RP-HPLC C18, MeOH 72 % / acetate-buffered saline pH 7.4; for log k (logarithm of the capacity factor): RP-HPLC C18, MeOH 72 % / water 28 %
Method in brief: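 Isocratic RP-HPLC on a C18 column at 40 °C, UV detection at 210 nm, dead time from KI. Log k used MeOH/H2O 72:28, log D used MeOH/acetate-buffered saline (pH 7.4 or 6.5) 72:28. k and D were calculated as (tR–tD)/tD, three replicates.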

[3] = test system: Enterococcus faecalis ATCC 29212; experiment: Antibacterial screening, broth microdilution MIC; assay type: cell-based; conditions: read-out: MIC E. faecalis
VRE 368 = experiment: Antibacterial screening, broth microdilution MIC; assay type: cell-based, vancomycin-resistant E. faecalis; conditions: Enterococcus, read-out: MIC VRE 368
[4] = test system: Mycobacterium smegmatis ATCC 700084; experiment: Antimycobacterial screening, broth dilution MIC; assay type: cell-based; conditions: Mycolicibacterium smegmatis, ATCC700084, 72 h, read-out: MIC M. smegmatis
[5] = test system: Mycobacterium kansasii DSM 44162; experiment: Antimycobacterial screening, broth dilution MIC; assay type: cell-based; conditions: DSM44162, 336 h, read-out: MIC M. kansasii
S. aureus ATCC 29213 = experiment: Antibacterial screening, broth microdilution MIC; assay type: cell-based; conditions: Staphylococcus aureus, ATCC29213; ATCC 29213, 24 h at 37 °C; read-out: MIC S. aureus
[6] = test system: Mycobacterium tuberculosis ATCC 25177/H37Ra; experiment: Antimycobacterial screening, broth dilution MIC (Alamar blue); assay type: cell-based; conditions: 336 h, H37Ra, 14 days at 37 °C, Alamar blue, read-out: MIC M. tuberculosis
Method in brief: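 Broth microdilution in Middlebrook 7H9 with ADC, compounds twofold from 256 to 0.125 μg mL^-1, 1.5×10^6 M. tuberculosis cells per well, 14 days at 37 °C. Alamar blue was then added for 24 h. MIC is the lowest concentration preventing blue resazurin turning pink resorufin; three repeats.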

VRE 342B = experiment: Antibacterial screening, broth microdilution MIC; assay type: cell-based, vancomycin-resistant E. faecalis; conditions: Enterococcus, vanA isolate, 24 h at 37 °C, read-out: MIC VRE 342B
E. coli ATCC 25922 = experiment: Antibacterial screening, broth microdilution MIC; assay type: cell-based; conditions: Escherichia coli, ATCC25922; ATCC 25922, 24 h at 37 °C
VRE 725B = experiment: Antibacterial screening, broth microdilution MIC; assay type: cell-based, vancomycin-resistant E. faecalis; conditions: Enterococcus, vanA isolate, 24 h at 37 °C, read-out: MIC VRE 725B
MRSA SA 3202 = experiment: Antibacterial screening, broth microdilution MIC; assay type: cell-based, methicillin-resistant S. aureus; conditions: Staphylococcus aureus, clinical isolate, 24 h at 37 °C, read-out: MIC MRSA SA 3202
MRSA 63718 [7] = experiment: Antibacterial screening, broth microdilution MIC; assay type: cell-based, methicillin-resistant S. aureus; conditions: Staphylococcus aureus, read-out: MIC MRSA 63718
[8] = test system: human monocytic leukemia THP-1 cells; conditions: cited from earlier work
MRSA 63718 [9] = test system: MRSA 63718; parameters: method as in PMID 25692135; conditions: cited from earlier work
[10] = ATCC29212, ATCC 29212, 24 h at 37 °C
[11] = clinical isolate, 24 h at 37 °C

Row | Structure (SMILES) | CC50 at 24 h (in vitro) [µM] | log D6.5 [2] | log D7.4 [2] | log k (logarithm of the capacity factor) [2] | MIC [3, 10] [µM] | MIC (VRE 368; vanA isolate, 24 h at 37 °C) [µM] | MIC ([5]; DSM 44162, 14 days at 37 °C) [µM] | MIC (S. aureus ATCC 29213) [µM] | MIC [6] [µM] | MIC (VRE 342B) [µM] | MIC (E. coli ATCC 25922) [µM] | MIC (VRE 725B) [µM] | MIC (MRSA SA 3202) [µM] | MIC (MRSA SA 630; [11]) [µM] | MIC ([4]; ATCC 700084, 3 days at 37 °C) [µM] | MIC (MRSA 63718 [7]; [11]) [µM] | CC50 [8] [µM] | also measured
1 | O=C(Nc1ccc(C(F)(F)F)cc1)c1c(O)ccc2ccccc12 [2-hydroxy-N-(4-trifluoromethylphenyl)naphthalene-1-carboxamide] |  |  |  |  |  |  |  |  |  |  |  |  |  |  |  |  |  | MIC M. kansasii [1]: 23 µM (≈ 7.62 µg/mL)
2 | COc1cc(NC(=O)c2c(O)ccc3ccccc23)cc(OC)c1 [Compound 6, N-(3,5-Dimethoxyphenyl)-2-hydroxynaphthalene-1-carboxamide] | > 30 | 0.0411 | 0.0490 | 0.0388 | 792 (≈ 256 µg/mL) | 792 (≈ 256 µg/mL) | 98.9 (≈ 32 µg/mL) | 198 (≈ 64 µg/mL) | 396 (≈ 128 µg/mL) | 792 (≈ 256 µg/mL) | 792 (≈ 256 µg/mL) | 792 (≈ 256 µg/mL) | 198 (≈ 64 µg/mL) |  |  |  |  | MIC (MRSA SA 630; 24 h): 396 µM (≈ 128 µg/mL); MIC [4]: 396 µM (≈ 128 µg/mL); MIC (MRSA 63718 [7]; 24 h): 396 µM (≈ 128 µg/mL)
3 | Cc1cc(C)cc(NC(=O)c2c(O)ccc3ccccc23)c1 [Compound 13, N-(3,5-Dimethylphenyl)-2-hydroxynaphthalene-1-carboxamide] | > 30 | 0.3429 | 0.3480 | 0.3367 | 879 (≈ 256 µg/mL) | 879 (≈ 256 µg/mL) | 110 (≈ 32 µg/mL) | 54.9 (≈ 16 µg/mL) | 439 (≈ 128 µg/mL) | 879 (≈ 256 µg/mL) | 879 (≈ 256 µg/mL) | 879 (≈ 256 µg/mL) | 54.9 (≈ 16 µg/mL) | 54.9 (≈ 16 µg/mL) | 220 (≈ 64.1 µg/mL) | 54.9 (≈ 16 µg/mL) |  | 
4 | Cc1ccc(C(F)(F)F)cc1NC(=O)c1c(O)ccc2ccccc12 [Compound 22, 2-Hydroxy-N-[2-methyl-5-(trifluoromethyl)phenyl]naphthalene-1-carboxamide] | > 30 | 0.3444 | 0.3440 |  |  |  |  | 2.9 (≈ 1 µg/mL) | 46.3 (≈ 16 µg/mL) | 92.6 (≈ 32 µg/mL) | 23.2 (≈ 8.01 µg/mL) | 92.6 (≈ 32 µg/mL) | 2.9 (≈ 1 µg/mL) | 2.9 (≈ 1 µg/mL) | 23.2 (≈ 8.01 µg/mL) | 5.79 (≈ 2 µg/mL) |  | MIC ([3]; ATCC29212, 24 h): 46.3 µM (≈ 16 µg/mL); MIC (VRE 368; 24 h): 46.3 µM (≈ 16 µg/mL); MIC [5]: 46.3 µM (≈ 16 µg/mL)
5 | O=C(Nc1ccccc1[N+](=O)[O-])c1c(O)ccc2ccccc12 [Compound 24, 2-hydroxy-N-(2-nitrophenyl)naphthalene-1-carboxamide] |  | 0.3077 | 0.3103 | 0.3033 | 830 (≈ 256 µg/mL) | 830 (≈ 256 µg/mL) | 51.9 (≈ 16 µg/mL) | 26 (≈ 8.02 µg/mL) | 104 (≈ 32.1 µg/mL) | 830 (≈ 256 µg/mL) | 830 (≈ 256 µg/mL) | 830 (≈ 256 µg/mL) | 51.9 (≈ 16 µg/mL) |  | 208 (≈ 64.1 µg/mL) | 415 (≈ 128 µg/mL) | > 20 | 
6 | O=C(Nc1cccc([N+](=O)[O-])c1)c1c(O)ccc2ccccc12 [Compound 25, 2-hydroxy-N-(3-nitrophenyl)naphthalene-1-carboxamide] |  | 0.3462 | 0.3058 | 0.4882 | 830 (≈ 256 µg/mL) | 830 (≈ 256 µg/mL) |  | 208 (≈ 64.1 µg/mL) | 104 (≈ 32.1 µg/mL) | 830 (≈ 256 µg/mL) | 830 (≈ 256 µg/mL) | 830 (≈ 256 µg/mL) | 208 (≈ 64.1 µg/mL) | 208 (≈ 64.1 µg/mL) | 208 (≈ 64.1 µg/mL) | 26 (≈ 8.02 µg/mL) | > 20 | MIC [5]: 104 µM (≈ 32.1 µg/mL)
7 | O=C(Nc1ccc([N+](=O)[O-])cc1)c1c(O)ccc2ccccc12 [Compound 26, 2-hydroxy-N-(4-nitrophenyl)naphthalene-1-carboxamide] |  | 0.0862 | 0.0879 | 0.0984 | 415 (≈ 128 µg/mL) | 830 (≈ 256 µg/mL) | 415 (≈ 128 µg/mL) | > 830 | 104 (≈ 32.1 µg/mL) | 830 (≈ 256 µg/mL) | 830 (≈ 256 µg/mL) | 830 (≈ 256 µg/mL) |  | 415 (≈ 128 µg/mL) | 208 (≈ 64.1 µg/mL) | 830 (≈ 256 µg/mL) | 2.5 ± 0.1 | 
8 | O=C(Nc1ccc([N+](=O)[O-])c(C(F)(F)F)c1)c1c(O)ccc2ccccc12 [Compound 27, 2-Hydroxy-N-[4-nitro-3-(trifluoromethyl)phenyl]naphthalene-1-carboxamide] | > 30 | 0.3282 | 0.3220 |  | 21.3 (≈ 8.01 µg/mL) | 21.3 (≈ 8.01 µg/mL) | 21.3 (≈ 8.01 µg/mL) | 0.332 (≈ 0.125 µg/mL) | 85 (≈ 32 µg/mL) | 42.5 (≈ 16 µg/mL) | 680 (≈ 256 µg/mL) | 42.5 (≈ 16 µg/mL) | 1.33 (≈ 0.5 µg/mL) | 1.33 (≈ 0.5 µg/mL) | 21.3 (≈ 8.01 µg/mL) | 1.33 (≈ 0.5 µg/mL) |  | 
9 | O=C(Nc1ccc(Br)cc1)c1c(O)ccc2ccccc12 [N-(4-bromophenyl)-2-hydroxynaphthalene-1-carboxamide] |  |  |  |  |  |  |  |  |  |  |  |  |  |  |  |  |  | MIC M. kansasii [1]: 93 µM (≈ 31.8 µg/mL)
10 | CN[C@H](CC(C)C)C(=O)N[C@H]1C(=O)N[C@@H](CC(N)=O)C(=O)N[C@H]2C(=O)N[C@H]3C(=O)N[C@H](C(=O)N[C@H](C(=O)O)c4cc(O)cc(O)c4-c4cc3ccc4O)[C@H](O)c3ccc(c(Cl)c3)Oc3cc2cc(c3O[C@@H]2O[C@H](CO)[C@@H](O)[C@H](O)[C@H]2O[C@H]2C[C@](C)(N)[C@H](O)[C@H](C)O2)Oc2ccc(cc2Cl)[C@H]1O [vancomycin] |  |  |  |  |  |  |  |  |  |  |  |  |  |  |  |  |  | MIC of vancomycin (MRSA 63718 [9]): 2 µg/mL
